Results as given in the NIST ThermoML archive (doi:10.1016/j.jct.2014.07.003).

Experiment: mn = molality of the nth substance listed, in mol/kg
Conditions: 99 kPa, Liquid, Alternating current cell with electrodes

CCCCCCCCCCCC[N+](C)(C)C.[Br-] [dodecyltrimethylammonium bromide] + O
electrical conductivity [S/m]
Conditions | 288.15 K | 293.15 K | 298.15 K | 303.15 K | 308.15 K | 313.15 K | 318.15 K
m1 = 0.0015 | 0.0137 | 0.014 | 0.0143 | 0.0144 | 0.0153 | 0.0169 | 0.018
m1 = 0.003 | 0.0265 | 0.027 | 0.0273 | 0.0278 | 0.0286 | 0.032 | 0.034
m1 = 0.0045 | 0.039 | 0.0397 | 0.0412 | 0.0413 | 0.042 | 0.0469 | 0.049
m1 = 0.0059 | 0.05 | 0.052 | 0.053 | 0.0545 | 0.0547 | 0.0605 | 0.0645
m1 = 0.0073 | 0.061 | 0.0635 | 0.0659 | 0.067 | 0.0675 | 0.0749 | 0.0771
m1 = 0.0087 | 0.0725 | 0.0748 | 0.0769 | 0.079 | 0.0795 | 0.088 | 0.0905
m1 = 0.0101 | 0.0837 | 0.086 | 0.089 | 0.0895 | 0.0903 | 0.101 | 0.103
m1 = 0.0116 | 0.095 | 0.0975 | 0.1 | 0.101 | 0.102 | 0.114 | 0.116
m1 = 0.013 | 0.106 | 0.108 | 0.11 | 0.112 | 0.113 | 0.126 | 0.128
m1 = 0.0144 | 0.115 | 0.118 | 0.12 | 0.122 | 0.123 | 0.135 | 0.138
m1 = 0.0157 | 0.124 | 0.126 | 0.128 | 0.129 | 0.131 | 0.142 | 0.145
m1 = 0.017 | 0.129 | 0.131 | 0.132 | 0.134 | 0.136 | 0.146 | 0.15
m1 = 0.0184 | 0.132 | 0.133 | 0.134 | 0.137 | 0.14 | 0.15 | 0.154
m1 = 0.0197 | 0.135 | 0.136 | 0.136 | 0.14 | 0.142 | 0.154 | 0.158
m1 = 0.021 | 0.137 | 0.138 | 0.139 | 0.143 | 0.145 | 0.157 | 0.161
m1 = 0.0223 | 0.139 | 0.14 | 0.142 | 0.146 | 0.148 | 0.159 | 0.163
m1 = 0.0236 | 0.141 | 0.142 | 0.143 | 0.149 | 0.152 | 0.162 | 0.167
m1 = 0.0249 | 0.143 | 0.144 | 0.146 | 0.151 | 0.154 | 0.164 | 0.17
m1 = 0.0274 | 0.146 | 0.149 | 0.15 | 0.155 | 0.158 | 0.168 | 0.174
m1 = 0.0286 | 0.148 | 0.151 | 0.153 | 0.157 | 0.16 | 0.17 | 0.177
m1 = 0.0298 | 0.15 | 0.154 | 0.156 | 0.159 | 0.162 | 0.172 | 0.179
